Experimental data taken from PubChem BioAssay (NCI).
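GI50 = concentration required for 50% inhibition of growth. TGI marks complete inhibition of growth.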

Experiments:
Experiment in all cases: NCI anticancer screen, dose series, 384-well format
SN12C renal = system: SN12C renal
OVCAR-4 ovarian = system: OVCAR-4 ovarian
SF-539 CNS = system: SF-539 CNS
IGROV1 ovarian = system: IGROV1 ovarian
COLO 205 colon = system: COLO 205 colon
SK-MEL-2 melanoma = system: SK-MEL-2 melanoma
NCI-H226 lung = system: NCI-H226 lung
MOLT-4 leukemia = system: MOLT-4 leukemia
HOP-62 NSCLC = system: HOP-62 NSCLC
SF-268 CNS = system: SF-268 CNS
NCI/ADR-RES ovarian = system: NCI/ADR-RES ovarian
HL-60(TB) leukemia = system: HL-60(TB) leukemia
NCI-H322M lung = system: NCI-H322M lung
HS 578T breast = system: HS 578T breast
CAKI-1 renal = system: CAKI-1 renal
K-562 leukemia = system: K-562 leukemia
786-0 renal = system: 786-0 renal
KM12 colon = system: KM12 colon
A498 renal = system: A498 renal
RPMI-8226 leukemia = system: RPMI-8226 leukemia
HCT-15 colon = system: HCT-15 colon
CCRF-CEM leukemia = system: CCRF-CEM leukemia
M14 melanoma = system: M14 melanoma
MDA-MB-468 breast = system: MDA-MB-468 breast
SK-MEL-28 melanoma = system: SK-MEL-28 melanoma
PC-3 prostate = system: PC-3 prostate
BT-549 breast = system: BT-549 breast
LOX IMVI melanoma = system: LOX IMVI melanoma
U251 glioblastoma = system: U251 glioblastoma
ACHN renal = system: ACHN renal
DU-145 prostate = system: DU-145 prostate
HOP-92 NSCLC = system: HOP-92 NSCLC
SNB-19 CNS = system: SNB-19 CNS
HCT-116 colon = system: HCT-116 colon
NCI-H23 lung = system: NCI-H23 lung
UACC-62 melanoma = system: UACC-62 melanoma
HCC-2998 colon = system: HCC-2998 colon
MCF7 breast = system: MCF7 breast
EKVX NSCLC = system: EKVX NSCLC
UACC-257 melanoma = system: UACC-257 melanoma
HT29 colon = system: HT29 colon
NCI-H522 lung = system: NCI-H522 lung
OVCAR-3 ovarian = system: OVCAR-3 ovarian
MALME-3M melanoma = system: MALME-3M melanoma
TK-10 renal = system: TK-10 renal
A549 NSCLC = system: A549 NSCLC
SW-620 colon = system: SW-620 colon
RXF 393 renal = system: RXF 393 renal
OVCAR-8 ovarian = system: OVCAR-8 ovarian
SF-295 CNS = system: SF-295 CNS
SK-MEL-5 melanoma = system: SK-MEL-5 melanoma
SK-OV-3 ovarian = system: SK-OV-3 ovarian
NCI-H460 NSCLC = system: NCI-H460 NSCLC
SNB-75 CNS = system: SNB-75 CNS
MDA-MB-435 melanoma = system: MDA-MB-435 melanoma

CC/C(=C(\c1ccccc1)c1ccc(OCCNC)cc1)c1ccccc1
GI50 (SN12C renal): 1850 nM | TGI (SN12C renal): 3420 nM | GI50 (OVCAR-4 ovarian): 2100 nM | TGI (OVCAR-4 ovarian): 3680 nM | GI50 (SF-539 CNS): 2100 nM | TGI (SF-539 CNS): 3560 nM | GI50 (IGROV1 ovarian): 1860 nM | TGI (IGROV1 ovarian): 3350 nM | GI50 (COLO 205 colon): 1940 nM | TGI (COLO 205 colon): 3400 nM | GI50 (SK-MEL-2 melanoma): 1860 nM | TGI (SK-MEL-2 melanoma): 3280 nM | GI50 (NCI-H226 lung): 2150 nM | TGI (NCI-H226 lung): 4650 nM | GI50 (MOLT-4 leukemia): 1490 nM | TGI (MOLT-4 leukemia): 2820 nM | GI50 (HOP-62 NSCLC): 2350 nM | TGI (HOP-62 NSCLC): 3830 nM | GI50 (SF-268 CNS): 2360 nM | TGI (SF-268 CNS): 3930 nM | GI50 (NCI/ADR-RES ovarian): 2200 nM | TGI (NCI/ADR-RES ovarian): 3910 nM | GI50 (HL-60(TB) leukemia): 1580 nM | TGI (HL-60(TB) leukemia): 2940 nM | GI50 (NCI-H322M lung): 2160 nM | TGI (NCI-H322M lung): 3700 nM | GI50 (HS 578T breast): 1900 nM | TGI (HS 578T breast): 3320 nM | GI50 (CAKI-1 renal): 1530 nM | TGI (CAKI-1 renal): 2920 nM | GI50 (K-562 leukemia): 1830 nM | TGI (K-562 leukemia): 3250 nM | GI50 ([…]-0 renal): 1790 nM | TGI (786-0 renal): 3200 nM | GI50 (KM12 colon): 1990 nM | TGI (KM12 colon): 3470 nM | GI50 (A498 renal): 1720 nM | TGI (A498 renal): 3100 nM | GI50 (RPMI-8226 leukemia): 2290 nM | TGI (RPMI-8226 leukemia): 3760 nM | GI50 (HCT-15 colon): 1820 nM | TGI (HCT-15 colon): 3270 nM | GI50 (CCRF-CEM leukemia): 1730 nM | TGI (CCRF-CEM leukemia): 3130 nM | GI50 (M14 melanoma): 2070 nM | TGI (M14 melanoma): 3520 nM | GI50 (MDA-MB-468 breast): 2390 nM | TGI (MDA-MB-468 breast): 3870 nM | GI50 (SK-MEL-28 melanoma): 2070 nM | TGI (SK-MEL-28 melanoma): 3520 nM | GI50 (PC-3 prostate): 1970 nM | TGI (PC-3 prostate): 3480 nM | GI50 (BT-549 breast): 1820 nM | TGI (BT-549 breast): 3260 nM | GI50 (LOX IMVI melanoma): 1790 nM | TGI (LOX IMVI melanoma): 3210 nM | GI50 (U251 glioblastoma): 2160 nM | TGI (U251 glioblastoma): 3640 nM | GI50 (ACHN renal): 1850 nM | TGI (ACHN renal): 3300 nM | GI50 (DU-145 prostate): 2260 nM | TGI (DU-145 prostate): 4240 nM | GI50 (HOP-92 NSCLC): 2050 nM | TGI (HOP-92 NSCLC): 3510 nM | GI50 (SNB-19 CNS): 2140 nM | TGI (SNB-19 CNS): 3640 nM | GI50 (HCT-116 colon): 1970 nM | TGI (HCT-116 colon): 3450 nM | GI50 (NCI-H23 lung): 2130 nM | TGI (NCI-H23 lung): 3670 nM | GI50 (UACC-62 melanoma): 2160 nM | TGI (UACC-62 melanoma): 3630 nM | GI50 (HCC-2998 colon): 1660 nM | TGI (HCC-2998 colon): 3040 nM | GI50 (MCF7 breast): 1200 nM | TGI (MCF7 breast): 2610 nM | GI50 (EKVX NSCLC): 1920 nM | TGI (EKVX NSCLC): 3670 nM | GI50 (UACC-257 melanoma): 2300 nM | TGI (UACC-257 melanoma): 3770 nM | GI50 (HT29 colon): 1770 nM | TGI (HT29 colon): 3190 nM | GI50 (NCI-H522 lung): 1930 nM | TGI (NCI-H522 lung): 3360 nM | GI50 (OVCAR-3 ovarian): 1920 nM | TGI (OVCAR-3 ovarian): 3400 nM | GI50 (MALME-3M melanoma): 2150 nM | TGI (MALME-3M melanoma): 3610 nM | GI50 (TK-10 renal): 2120 nM | TGI (TK-10 renal): 4070 nM | GI50 (A549 NSCLC): 1710 nM | TGI (A549 NSCLC): 3160 nM | GI50 (SW-620 colon): 1980 nM | TGI (SW-620 colon): 3460 nM | GI50 (RXF 393 renal): 2020 nM | TGI (RXF 393 renal): 3470 nM | GI50 (OVCAR-8 ovarian): 1860 nM | TGI (OVCAR-8 ovarian): 3320 nM | GI50 (SF-295 CNS): 1880 nM | TGI (SF-295 CNS): 3300 nM | GI50 (SK-MEL-5 melanoma): 1690 nM | TGI (SK-MEL-5 melanoma): 3080 nM | GI50 (SK-OV-3 ovarian): 1870 nM | TGI (SK-OV-3 ovarian): 3300 nM | GI50 (NCI-H460 NSCLC): 1980 nM | TGI (NCI-H460 NSCLC): 3510 nM | GI50 (SNB-75 CNS): 2060 nM | TGI (SNB-75 CNS): 3550 nM | GI50 (MDA-MB-435 melanoma): 2060 nM | TGI (MDA-MB-435 melanoma): 3500 nM
